Laboratory results taken from ChEMBL document CHEMBL1201862, “PubChem BioAssay data set” (2004).
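Briefly, cells in 96-well plates were exposed to five compound concentrations for 48 h, and endpoints were estimated by linear interpolation. GI50: concentration for 50% inhibition of growth.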 Activity calls are given as the source filed them. Rule as the data show it: active = GI50 up to about 1.1 µM and inactive = higher.

Assays:
Assay in all cases: NCI anticancer screen, dose series, 48 h
786-0 = system: 786-0
A549 = system: A549
ACHN = system: ACHN
BT-549 = system: BT-549
CAKI-1 = system: CAKI-1
CCRF-CEM = system: CCRF-CEM
COLO 205 = system: COLO 205
DU-145 = system: DU-145
EKVX = system: EKVX
HCC 2998 = system: HCC 2998
HCT-116 = system: HCT-116
HCT-15 = system: HCT-15
HL-60 = system: HL-60
HOP-62 = system: HOP-62
HOP-92 = system: HOP-92
Hs-578T = system: Hs-578T
IGROV-1 = system: IGROV-1
KM12 = system: KM12
LOX IMVI = system: LOX IMVI
M14 = system: M14
MCF7 = system: MCF7
MDA-MB-231 = system: MDA-MB-231
MDA-MB-435 = system: MDA-MB-435
MDA-N = system: MDA-N
MOLT-4 = system: MOLT-4
NCI-H226 = system: NCI-H226
NCI-H23 = system: NCI-H23
NCI-H460 = system: NCI-H460
NCI-H522 = system: NCI-H522
NCI/ADR-RES = system: NCI/ADR-RES
OVCAR-3 = system: OVCAR-3
OVCAR-4 = system: OVCAR-4
OVCAR-5 = system: OVCAR-5
OVCAR-8 = system: OVCAR-8
PC-3 = system: PC-3
RXF 393 = system: RXF 393
SF-268 = system: SF-268
SF-295 = system: SF-295
SF-539 = system: SF-539
SK-MEL-28 = system: SK-MEL-28
SK-MEL-2 = system: SK-MEL-2
SK-MEL-5 = system: SK-MEL-5
SK-OV-3 = system: SK-OV-3
SN12C = system: SN12C
SNB-19 = system: SNB-19
SNB-75 = system: SNB-75
SW-620 = system: SW-620
TK-10 = system: TK-10
U-251 = system: U-251
UACC-257 = system: UACC-257
UACC-62 = system: UACC-62
UO-31 = system: UO-31
K562 = system: K562
Malme-3M = system: Malme-3M
RPMI-8226 = system: RPMI-8226
SR = system: SR

CCCCOC(=O)C(=O)C(CC(CC)C(=O)c1ccccc1)C(=O)C=C(C)C (stereo not given)
GI50 (786-0): > 100 µM (inactive)
GI50 (A549): > 100 µM (inactive)
GI50 (ACHN): > 100 µM (inactive)
GI50 (BT-549): > 100 µM (inactive)
GI50 (CAKI-1): > 100 µM (inactive)
GI50 (CCRF-CEM): > 100 µM (inactive)
GI50 (COLO 205): > 100 µM (inactive)
GI50 (DU-145): > 100 µM (inactive)
GI50 (EKVX): > 100 µM (inactive)
GI50 (HCC 2998): > 100 µM (inactive)
GI50 (HCT-116): > 100 µM (inactive)
GI50 (HCT-15): > 100 µM
GI50 (HL-60): > 100 µM (inactive)
GI50 (HOP-62): > 100 µM (inactive)
GI50 (HOP-92): > 100 µM (inactive)
GI50 (Hs-578T): > 100 µM (inactive)
GI50 (IGROV-1): > 100 µM (inactive)
GI50 (KM12): > 100 µM (inactive)
GI50 (LOX IMVI): > 100 µM (inactive)
GI50 (M14): > 100 µM (inactive)
GI50 (MCF7): > 100 µM (inactive)
GI50 (MDA-MB-231): > 100 µM (inactive)
GI50 (MDA-MB-435): > 100 µM (inactive)
GI50 (MDA-N): > 100 µM (inactive)
GI50 (MOLT-4): > 100 µM (inactive)
GI50 (NCI-H226): > 100 µM (inactive)
GI50 (NCI-H23): > 100 µM (inactive)
GI50 (NCI-H460): > 100 µM (inactive)
GI50 (NCI-H522): > 100 µM (inactive)
GI50 (NCI/ADR-RES): > 100 µM (inactive)
GI50 (OVCAR-3): > 100 µM (inactive)
GI50 (OVCAR-4): > 100 µM (inactive)
GI50 (OVCAR-5): > 100 µM (inactive)
GI50 (OVCAR-8): > 100 µM (inactive)
GI50 (PC-3): > 100 µM (inactive)
GI50 (RXF 393): > 100 µM (inactive)
GI50 (SF-268): > 100 µM (inactive)
GI50 (SF-295): > 100 µM (inactive)
GI50 (SF-539): > 100 µM (inactive)
GI50 (SK-MEL-28): > 100 µM (inactive)
GI50 (SK-MEL-2): > 100 µM (inactive)
GI50 (SK-MEL-5): > 100 µM (inactive)
GI50 (SK-OV-3): > 100 µM (inactive)
GI50 (SN12C): > 100 µM (inactive)
GI50 (SNB-19): > 100 µM (inactive)
GI50 (SNB-75): > 100 µM (inactive)
GI50 (SW-620): > 100 µM (inactive)
GI50 (TK-10): > 100 µM (inactive)
GI50 (U-251): > 100 µM (inactive)
GI50 (UACC-257): > 100 µM (inactive)
GI50 (UACC-62): > 100 µM (inactive)
GI50 (UO-31): > 100 µM (inactive)

CC(C(=O)O)c1ccc(-n2nnc3c(=O)[nH][nH]c(=O)c32)cc1 (stereo not given)
GI50 (A549): > 100 µM (inactive)
GI50 (ACHN): > 100 µM (inactive)
GI50 (BT-549): > 100 µM (inactive)
GI50 (CAKI-1): > 100 µM (inactive)
GI50 (CCRF-CEM): > 100 µM (inactive)
GI50 (COLO 205): > 100 µM (inactive)
GI50 (DU-145): > 100 µM (inactive)
GI50 (EKVX): > 100 µM (inactive)
GI50 (HCC 2998): > 100 µM (inactive)
GI50 (HCT-116): > 100 µM (inactive)
GI50 (HCT-15): > 100 µM
GI50 (HL-60): > 100 µM (inactive)
GI50 (HOP-62): > 100 µM (inactive)
GI50 (K562): > 100 µM (inactive)
GI50 (KM12): > 100 µM (inactive)
GI50 (LOX IMVI): > 100 µM (inactive)
GI50 (M14): > 100 µM (inactive)
GI50 (MCF7): > 100 µM (inactive)
GI50 (MDA-MB-231): > 100 µM (inactive)
GI50 (MDA-MB-435): > 100 µM (inactive)
GI50 (MDA-N): > 100 µM (inactive)
GI50 (MOLT-4): > 100 µM (inactive)
GI50 (Malme-3M): > 100 µM (inactive)
GI50 (NCI-H23): > 100 µM (inactive)
GI50 (NCI-H460): > 100 µM (inactive)
GI50 (NCI/ADR-RES): > 100 µM (inactive)
GI50 (OVCAR-3): > 100 µM (inactive)
GI50 (OVCAR-4): > 100 µM (inactive)
GI50 (OVCAR-5): > 100 µM (inactive)
GI50 (OVCAR-8): > 100 µM (inactive)
GI50 (PC-3): > 100 µM (inactive)
GI50 (RPMI-8226): > 100 µM (inactive)
GI50 (SF-295): > 100 µM (inactive)
GI50 (SK-MEL-28): > 100 µM (inactive)
GI50 (SK-MEL-2): > 100 µM (inactive)
GI50 (SK-MEL-5): > 100 µM (inactive)
GI50 (SN12C): > 100 µM (inactive)
GI50 (SNB-19): > 100 µM (inactive)
GI50 (SR): > 100 µM (inactive)
GI50 (TK-10): > 100 µM (inactive)
GI50 (U-251): > 100 µM (inactive)
GI50 (UACC-257): > 100 µM (inactive)
GI50 (UO-31): > 100 µM (inactive)
